Data reported in paper PMC10584882 (Communications Biology, 2023).
Where “and” joins values, the source holds several entries; their conditions need not be identical. Identical values can stand only once.

Tests used:
CatL = target: T1, CatL (Homo sapiens, UniProt P07711); assay: Cathepsin inhibition test, CatL; format: biochemical; details: for Residual activity (Vi/V0): Fig. S3 panel b, single replicates
T1 construct: made in house

human CatV = target: T2, human CatV (Homo sapiens, UniProt O60911); assay: Cathepsin inhibition test, CatV; format: biochemical; details: Fig. S3 panel c, single replicates
T2 construct: made in house
T2 sequence (O60911 114-334): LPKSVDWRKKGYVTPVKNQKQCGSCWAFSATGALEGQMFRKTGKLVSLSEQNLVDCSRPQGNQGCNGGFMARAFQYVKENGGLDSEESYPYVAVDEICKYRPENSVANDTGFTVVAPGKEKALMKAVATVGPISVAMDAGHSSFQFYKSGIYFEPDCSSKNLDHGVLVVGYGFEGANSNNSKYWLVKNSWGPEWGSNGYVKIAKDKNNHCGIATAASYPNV

SARS-CoV-2 [1] = assay: Viral loading determination via RT-qPCR in VERO-CCL81 cells; format: cell-based; details: for Viral titer (% control): VERO CCL81, RT-qPCR, experiments 1 and 2
SARS-CoV-2 [2] = assay: Viral loading determination via RT-qPCR in LC-HK2 cells; format: cell-based; details: for Viral titer (% control): LC-HK2, RT-qPCR
VERO-CCL81 cells = assay: Cell viability assay (CellTiter-Glo), VERO-CCL81; format: cell-based; details: for Cell viability (% control): VERO CCL81, 72 h, replicates of experiments 1 and 2
Method: (§1) VERO-CCL81 was seeded in 96-well plates at a density of 1.5×10^4 cells/well, while LC-HK2 was seeded at a density of 3×10^4 cells/well, following 24 h incubation at 37 °C and 5% CO2 atmosphere. The cell culture media was replaced by serial dilutions of the compounds and the cell viability was determined 72 h post-treatment via CellTiter-Glo® Luminescent Cell Viability Assay (Promega), following the manufacturer’s instructions. Luminescent signal was recorded using a CLARIOstar multi-mode microplate reader (BMG Labtech, Germany). Graphs were generated using GraphPad Prism software version 8.0 (La Jolla, CA, USA, www.graphpad.com). Samples deemed to be technical failures and extreme outlier were removed.

LC-HK2 cells = assay: Cell viability assay (CellTiter-Glo), LC-HK2; format: cell-based, human
Method: as §1

[3] = inhibitor 0.105 nM, 0.000105 µM
[4] = inhibitor 0.189 nM, 0.000189 µM
[5] = inhibitor 0.612 nM, 0.000612 µM
[6] = inhibitor 1.103 nM, 0.001103 µM
[7] = inhibitor 1.985 nM, 0.001985 µM

T1 sequence (P07711 114-333): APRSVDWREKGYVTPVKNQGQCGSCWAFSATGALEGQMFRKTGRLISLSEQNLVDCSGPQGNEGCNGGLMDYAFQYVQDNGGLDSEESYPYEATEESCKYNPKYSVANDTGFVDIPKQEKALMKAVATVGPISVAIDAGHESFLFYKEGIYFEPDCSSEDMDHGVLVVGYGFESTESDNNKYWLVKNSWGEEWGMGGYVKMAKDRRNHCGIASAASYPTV

`CCCC[C@H](NC(=O)[C@H](CC(C)C)NC(=O)OCc1ccccc1)C(O)S(=O)(=O)[O-].[Na+]` (stereo partly shown) [S-Calpeptin] was tested, and the “Residual activity (Vi/V0)” value (CatL; inhibitor 0.010 nM, 10 pM) was 1.426 and 1.05 and 1.025 and 1.009 and 1.011 and 1.078 and 1.028 and 1.031 and 1.036 and 1.201, the “Residual activity (Vi/V0)” value (CatL; inhibitor 0.018 nM, 18 pM) was 1.349 and 1.024 and 1.036 and 0.8728 and 0.9988 and 0.9818 (2×) and 1.042 and 1.062 and 1.149 and the “Residual activity (Vi/V0)” value (CatL; inhibitor 0.032 nM, 32 pM) was 1.453 and 0.9142 and 1.1 and 1.088 and 1.079 and 0.9024 and 0.9567 and 1.006 and 0.9803 and 1.2694. The “Residual activity (Vi/V0)” value (CatL; inhibitor 0.058 nM, 58 pM) was 1.377 and 1.0256 and 0.8968 and 0.9231 and 0.8862 and 0.9577 and 1.001 and 1.006 and 1.052 and 1.254, the “Residual activity (Vi/V0)” value (CatL; [3]) was 1.053 and 0.914 and 0.68 and 0.6925 and 0.711 and 0.8569 and 0.909 and 1.0072 and 0.8377 and 1.071 and the “Residual activity (Vi/V0)” value (CatL; [4]) was 0.9886 and 0.7158 and 0.5095 and 0.5746 and 0.5088 and 0.7745 and 0.7818 and 0.8193 and 0.7501 and 1.054. The “Residual activity (Vi/V0)” value (CatL; inhibitor 0.340 nM, 0.00034 µM) was 0.5984 and 0.5107 and 0.3117 and 0.3431 and 0.2757 and 0.5388 and 0.5659 and 0.5589 and 0.4129 and 0.6122, the “Residual activity (Vi/V0)” value (CatL; [5]) was 0.6669 and 0.3311 and 0.2683 and 0.3139 and 0.2767 and 0.6359 and 0.6301 and 0.62 and 0.515 and 0.8313 and the “Residual activity (Vi/V0)” value (CatL; [6]) was 0.5114 and 0.2133 and 0.2013 and 0.1965 and 0.1624 and 0.4143 and 0.3924 and 0.3311 and 0.3975 and 0.5758. For the same molecule, the “Residual activity (Vi/V0)” value (CatL; [7]) was 0.3099 and 0.145 and 0.1192 and 0.1108 and 0.1144 and 0.3088 and 0.318 and 0.3267 and 0.2219 and 0.2968, the Ki (CatL; mean with standard deviation and 95% confidence interval, pH 5.5, 37 °C) was 0.000148 µM and the “Residual activity (Vi/V0)” value (human CatV; inhibitor 0.010 nM, 10 pM) was 0.8982 and 0.9438 and 1.016 and 0.9432 and 0.9838 and 0.9734 and 1.009 and 0.9925. The “Residual activity (Vi/V0)” value (human CatV; inhibitor 0.018 nM, 18 pM) was 0.7063 and 0.8048 and 0.9697 and 0.9452 and 0.965 and 0.9273 and 1.044 and 0.9905, the “Residual activity (Vi/V0)” value (human CatV; inhibitor 0.032 nM, 32 pM) was 0.4743 and 0.664 and 0.9379 and 0.8845 and 0.8627 and 0.9319 and 1.237 and 0.91 and the “Residual activity (Vi/V0)” value (human CatV; inhibitor 0.058 nM, 58 pM) was 0.01132 and 0.01674 and 0.9458 and 0.6877 and 0.9713 and 0.8348 and 1.1467 and 0.7642. For the same molecule, the “Residual activity (Vi/V0)” value (human CatV; [3]) was 0.5008 and 0.5002 and 0.8948 and 0.8318 and 0.8983 and 0.7019 and 1.143 and 0.6207, the “Residual activity (Vi/V0)” value (human CatV; [4]) was 0.2447 and 0.2374 and 0.7712 and 0.7606 and 0.8108 and 0.5224 and 1.02 and 0.4249 and the “Residual activity (Vi/V0)” value (human CatV; inhibitor 0.340 nM, 0.00034 µM) was 0.1518 and 0.1386 and 0.6304 and 0.6112 and 0.6332 and 0.3803 and 0.6867 and 0.2117. The “Residual activity (Vi/V0)” value (human CatV; [5]) was 0.103 and 0.1097 and 0.4478 and 0.4871 and 0.5442 and 0.179 and 0.3919 and 0.1269, the “Residual activity (Vi/V0)” value (human CatV; [6]) was 0.05798 and 0.06049 and 0.2946 and 0.2993 and 0.3554 and 0.1895 and 0.2004 and 0.05784 and the “Residual activity (Vi/V0)” value (human CatV; [7]) was 0.03342 and 0.03103 and 0.1055 and 0.1184 and 0.07678 and 0.1061 and 0.06687 and 0.038. For the same molecule, the “Residual activity (Vi/V0)” value (human CatV; inhibitor 3.572 nM, 0.003572 µM) was 0.01297 and 0.01099 and 0.0386 and 0.03676 and 0.03768 and 0.02078 and 0.03085 and 0.02157, the “Residual activity (Vi/V0)” value (human CatV; inhibitor 6.430 nM, 0.00643 µM) was 0.008943 and 0.006591 and 0.009607 and 0.008666 and 0.01717 and 0.01084 and 0.01202 and 0.007959 and the “Residual activity (Vi/V0)” value (human CatV; inhibitor 11.547 nM, 0.011547 µM) was 0.003173 and 0.004275 and 0.001602 and 0.001011. For the same molecule, the “Viral titer (% control)” value (SARS-CoV-2 [1]; 0.0781 μM) was 100 % control, the “Viral titer (% control)” value (SARS-CoV-2 [1]; 0.1563 μM) was 100 % control and the “Viral titer (% control)” value (SARS-CoV-2 [1]; 0.3125 μM) was 100 % control. The “Viral titer (% control)” value (SARS-CoV-2 [1]; 0.625 μM, listed as S-Calpepin) was 65 % control and 61.77 % control, the “Viral titer (% control)” value (SARS-CoV-2 [1]; 1.25 μM, listed as S-Calpepin) was 24 % control and 43.33 % control and the “Viral titer (% control)” value (SARS-CoV-2 [1]; 2.5 μM, listed as S-Calpepin) was 24.98 % control and 48.08 % control. For the same molecule, the “Viral titer (% control)” value (SARS-CoV-2 [1]; 5 μM) was 27.38 % control, the EC50 (SARS-CoV-2 [1]; VERO-CCL81, RT-qPCR, 48 h post-infection, read-out: Viral titer EC50) was 0.7 µM and the EC50 (SARS-CoV-2 [2]; LC-HK2, RT-qPCR, 72 h post-infection, read-out: Viral titer EC50) was 0.63 µM. The “Viral titer (% control)” value (SARS-CoV-2 [2]; 0.0006 μM) was 100 % control, the “Viral titer (% control)” value (SARS-CoV-2 [2]; 0.0012 μM) was 100 % control and the “Viral titer (% control)” value (SARS-CoV-2 [2]; 0.0024 μM) was 100 % control. The “Viral titer (% control)” value (SARS-CoV-2 [2]; 0.0049 μM) was 100 % control, the “Viral titer (% control)” value (SARS-CoV-2 [2]; 0.0098 μM) was 100 % control and the “Viral titer (% control)” value (SARS-CoV-2 [2]; 0.0195 μM) was 100 % control. The “Viral titer (% control)” value (SARS-CoV-2 [2]; 0.0391 μM) was 100 % control, the “Viral titer (% control)” value (SARS-CoV-2 [2]; 0.0781 μM) was 100 % control and the “Viral titer (% control)” value (SARS-CoV-2 [2]; 0.1563 μM) was 100 % control. The “Viral titer (% control)” value (SARS-CoV-2 [2]; 0.3125 μM, listed as S-Calpepin) was 56.49 % control and 49.6 % control, the “Viral titer (% control)” value (SARS-CoV-2 [2]; 0.625 μM, listed as S-Calpepin) was 69.04 % control and 44.94 % control and the “Viral titer (% control)” value (SARS-CoV-2 [2]; 1.25 μM, listed as S-Calpepin) was 38.67 % control and 33.45 % control. The “Viral titer (% control)” value (SARS-CoV-2 [2]; 2.5 μM, listed as S-Calpepin) was 33.13 % control and 30.16 % control, the “Viral titer (% control)” value (SARS-CoV-2 [2]; 100 μM) was 0 % control and the “Cell viability (% control)” value (VERO-CCL81 cells; 0.0781 μM) was 99.91 % control and 99.99 % control and 93.43 % control. For the same molecule, the “Cell viability (% control)” value (VERO-CCL81 cells; 0.1563 μM) was 101.27 % control and 99.33 % control and 91.02 % control, the “Cell viability (% control)” value (VERO-CCL81 cells; 0.3125 μM) was 98.12 % control and 96.79 % control and 88.9 % control and 104.51 % control and 93.11 % control and 88.49 % control and the “Cell viability (% control)” value (VERO-CCL81 cells; 0.625 μM) was 102.02 % control and 99.32 % control and 91.53 % control and 106.07 % control and 99.18 % control and 92.52 % control. For the same molecule, the “Cell viability (% control)” value (VERO-CCL81 cells; 1.25 μM) was 101.8 % control and 101.21 % control and 92.78 % control and 102.28 % control and 98.11 % control and 94.97 % control, the “Cell viability (% control)” value (VERO-CCL81 cells; 2.5 μM) was 103.7 % control and 100.66 % control and 93.92 % control and 107.86 % control and 99.28 % control and 84.04 % control and the “Cell viability (% control)” value (VERO-CCL81 cells; 5 μM) was 103.66 % control and 103.11 % control and 94.78 % control and 109.88 % control and 106.46 % control and 91.66 % control. For the same molecule, the “Cell viability (% control)” value (VERO-CCL81 cells; 10 μM) was 95.16 % control and 96.86 % control and 93.25 % control and 107.42 % control and 101.38 % control and 83.78 % control, the “cytotoxicity (in words)” value (VERO-CCL81 cells; VERO-CCL81, 72 h) was “no cytotoxicity up to low micromolar concentrations” and the “cytotoxicity (in words)” value (LC-HK2 cells; LC-HK2, 72 h) was “no cytotoxicity up to low micromolar concentrations”. For the same molecule, the “Cell viability (% control)” value (LC-HK2 cells; LC-HK2, 0.0006 μM, 72 h, replicates) was 101.91 % control and 100.87 % control and 100.74 % control.
